Measurements published in patent publication US4851221A, “Liquid calcium supplementation from readily soluble mixtures of calcium compound and citric acid” (Mission Pharmacal Company, priority 1986, dated 1989).
Where a name gives a salt, the structure may show the parent alone.

Tests used:
[1] = blood pressure in essential hypertension; assay type: in vivo; conditions: 800 mg calcium/day
[2] = radiocalcium absorption (fecal recovery of radioactive calcium); assay type: in vivo; conditions: 6 normal subjects; oral radiocalcium-labeled; mean ± SD; * p < 0.05 vs tricalcium dicitrate (pre-mix 1.25)
Procedure: (§1) The pre-mixes yielded greater absorbability of calcium than tricalcium dicitrate. […] The calcium absorption was also measured more directly from the recovery of radiocalcium after taking labeled calcium preparations in 6 normal subjects.

[3] = during treatment; cited from earlier work
[4] = oral; comparable amount; cited from earlier work
[5] = indirect method of oral calcium loading: increment in urinary calcium; assay type: in vivo; conditions: second two hours after oral 500 mg calcium; 10 normal subjects; mean ± SD; ** p < 0.01 vs tricalcium dicitrate (pre-mixes 1.5 and 1.25)
Procedure: as §1
This indirect measure of calcium absorption was greatest for the pre-mix with a calcium/citrate molar ratio of 1.25 than for other pre-mixes.

[6] = in vivo; cited from earlier work
[7] = cited from earlier work
[8] = cited from earlier work; remark: listed apart in the source
[9] = patients with absorptive hypercalciuria; cited from earlier work

Compound: O=C(O)CC(O)(CC(=O)O)C(=O)O [Tricalcium Dicitrate, tricalcium dicitrate]
- effect on blood pressure [1]: Neither calcium carbonate nor tricalcium dicitrate (800 mg calcium/day) was effective in lowering blood pressure
- Calcium Absorption [2]: 19.1 ± 6.9%
- urinary citrate change [3]: Urinary citrate rose significantly during calcium citrate treatment
- control of hyperphosphatemia (1.5-2.75 g calcium/day, preliminary data): satisfactory control of hyperphosphatemia could be achieved in the majority of patients
- serum aluminum concentration after treatment (after 8 weeks of treatment, p< 0.05, 1.5-2.75 g calcium/day): 79 ng/mL
- serum aluminum concentration before treatment (before treatment): 127 ng/mL
- calcium absorbability versus calcium carbonate [4]: more calcium was absorbable from calcium citrate than from a comparable amount of calcium carbonate
- Increment in Urinary Calcium [5]: 0.087 ± 0.087 mg calcium/100 ml glomerular f

Compound: [OH][Al]([OH])[OH] [aluminum hydroxide]
- aluminum accumulation / osteomalacia [6]: aluminum accumulation in the body causing a vitamin D resistant osteomalacia

Compound: O=C(O)O [calcium carbonate]
- effect on blood pressure [1]: Neither calcium carbonate nor tricalcium dicitrate (800 mg calcium/day) was effective in lowering blood pressure
- prevention of vertebral bone loss ([7]; Christiansen et al., postmenopausal women): ineffective in preventing vertebral bone loss
- absorption of ingested phosphate ([8]; 3-20 g calcium/day, Clarkson et al.): prevent the absorption of ingested phosphate
- urinary citrate change [3]: not during calcium carbonate therapy

Compound: O=C(O)CC(O)(CC(=O)O)C(=O)O [calcium citrate]
- serum phosphate concentration ([8]; 2 g calcium/day, patients with renal failure, McDonald et al.): effective in restoring normal serum phosphate concentration

Compound: O=C(O)[C@H](O)[C@@H](O)[C@H](O)[C@H](O)CO [calcium gluconate]
- urinary calcium / activity product ratio (calcium oxalate saturation) [9]: increased urinary calcium, leading to an increased activity product ratio

Compound: CC#C[C@]1(O)CC[C@H]2[C@@H]3CCc4cc(O)ccc4[C@H]3CC[C@@]21C [estrogen]
- prevention of further bone losses ([7]; Recker et al., osteoporosis prone postmenopausal women): may be prevented by estrogen treatment
